Measured values: patent US20250340538A1, “IMIDAZOLONE DERIVATIVES AS INHIBITORS OF PROTEIN KINASES IN PARTICULAR DYRK1A, CLK1 AND/OR CLK4” (PERHA PHARMACEUTICALS, priority 2021, published 2025)
Like-named read-outs stand apart in the source and are kept apart here.

Assays:
Type in all cases: biochemical
CLK3 = molecular target: T1, CLK3 (Homo sapiens, UniProt P49761); assay: Radiometric protein kinase assay (33PanQinase Activity Assay), CLK3; conditions: read-out: IC50 on CLK3 (most potent CLK3 inhibitors)
T1 construct: GST-fusion or His-tag (not specified per kinase); purchased ProQinase GmbH; host or cells: Sf9 insect cells or E. coli (not specified per kinase)
Method: (§1) Assays were performed by ProQinase GmbH (Engesserstr. 4, D-79108 Freiburg, Germany. www.proqinase.com). The IC50 profile of all compounds was determined using 12 protein kinases (CDK2/cyclin E, CK1ε, CLK1, 2, 3, 4, DYRK1A, 1B, 2, 3, 4, GSK3β).
(§2) The compounds were provided as […] in 100% DMSO. Prior to testing, the 1 μM stock solutions were subjected to a serial, semi-logarithmic dilution using 100% DMSO as a solvent. […] In the process, 90 μl H2O were added to each well of each compound dilution plate. To minimize potential precipitation, the H2O was added to each plate only a few minutes before the transfer of the compound solutions into the assay plates. The plate was shaken thoroughly, resulting in a compound dilution plate/10% DMSO.
(§3) For the assays (see below), 5 μL solution from each well of the compound dilution plates/10% DMSO were transferred into the assay plates. The final volume of the assay was 50 μL. All compounds were tested at 10 final assay concentrations in the range from 10 μM to 30 nM. The final DMSO concentration in the reaction cocktails was 1% in all cases.
(§4) All protein kinases provided by ProQinase were expressed in Sf9 insect cells or in E. coli as recombinant GST-fusion proteins or His-tagged proteins, either as full-length or enzymatically active fragments. All kinases were produced from human cDNAs and purified by either GSH-affinity chromatography or immobilized metal. Affinity tags were removed from a number of kinases during purification. The purity of the protein kinases was examined by SDS-PAGE/Coomassie staining, the identity was checked by mass spectroscopy.
(§5) A radiometric protein kinase assay (33PanQinase® Activity Assay) was used for measuring the kinase activity of the 12 protein kinases. All kinase assays were performed in 96-well FlashPlates™ from PerkinElmer (Boston, MA, USA) in a 50 μL reaction volume. The reaction cocktail was pipetted in four steps in the following order: • 25 μL of assay buffer (standard buffer/[γ-^33P]-ATP), • 10 μL of ATP solution (in H2O), • 5 μL of test compound (in 10% DMSO), • 10 μL of enzyme/substrate mixture.
(§6) The reaction cocktails were incubated at 30° C. for 60 minutes. The reaction was stopped with 50 μL of 2% (v/v) H3PO4, plates were aspirated and washed two times with 200 μL 0.9% (w/v) NaCl. Incorporation of ^33Pi was determined with a microplate scintillation counter (Microbeta, Wallac). The IC50 values for all compounds were calculated from the dose response curves
(§7) As a parameter for assay quality, the Z′-factor (Zhang et al., J. Biomol. Screen. 2: 67-73, 1999) for the low and high controls of each assay plate (n=8) was used. ProQinase's criterion for repetition of an assay plate is a Z′-factor below 0.4 (Iversen et al., J. Biomol. Screen. 3: 247-252, 2006).

CLK2 = molecular target: T2, CLK2 (Homo sapiens, UniProt P49760); assay: Radiometric protein kinase assay (33PanQinase Activity Assay), CLK2; conditions: read-out: IC50 on CLK2 (most potent CLK2 inhibitors)
T2 construct: GST-fusion or His-tag (not specified per kinase); purchased ProQinase GmbH; host or cells: Sf9 insect cells or E. coli (not specified per kinase)
Method: as §1, §2, §3, §4, §5, §6, §7

DYRK3 = molecular target: T3, DYRK3 (Homo sapiens, UniProt O43781); assay: Radiometric protein kinase assay (33PanQinase Activity Assay), DYRK3; conditions: read-out: IC50 on DYRK3 (most potent DYRK3 inhibitors)
T3 construct: GST-fusion or His-tag (not specified per kinase); purchased ProQinase GmbH; host or cells: Sf9 insect cells or E. coli (not specified per kinase)
T3 sequence (O43781 1-588): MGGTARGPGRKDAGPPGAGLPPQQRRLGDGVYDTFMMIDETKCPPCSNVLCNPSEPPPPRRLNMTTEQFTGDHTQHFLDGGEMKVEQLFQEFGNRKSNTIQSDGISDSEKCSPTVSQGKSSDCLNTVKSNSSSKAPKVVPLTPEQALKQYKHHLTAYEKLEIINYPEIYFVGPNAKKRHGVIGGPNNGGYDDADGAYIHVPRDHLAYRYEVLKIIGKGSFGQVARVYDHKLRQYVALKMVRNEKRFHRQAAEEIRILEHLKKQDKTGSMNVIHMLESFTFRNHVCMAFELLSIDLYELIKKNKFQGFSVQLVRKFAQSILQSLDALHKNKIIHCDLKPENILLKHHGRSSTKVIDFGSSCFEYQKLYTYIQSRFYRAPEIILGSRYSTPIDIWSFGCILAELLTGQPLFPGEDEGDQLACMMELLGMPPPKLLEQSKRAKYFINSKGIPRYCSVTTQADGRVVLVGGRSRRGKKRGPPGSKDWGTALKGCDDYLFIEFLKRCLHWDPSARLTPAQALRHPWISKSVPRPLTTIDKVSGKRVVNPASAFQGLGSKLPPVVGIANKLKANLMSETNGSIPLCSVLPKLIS
Method: as §1, §2, §3, §4, §5, §6, §7

CLK4 = molecular target: T4, CLK4 (Homo sapiens, UniProt Q9HAZ1); assay: Radiometric protein kinase assay (33PanQinase Activity Assay), CLK4; conditions: read-out: IC50 on CLK4 (most potent CLK4 inhibitors)
T4 construct: GST-fusion or His-tag (not specified per kinase); purchased ProQinase GmbH; host or cells: Sf9 insect cells or E. coli (not specified per kinase)
Method: as §1, §2, §3, §4, §5, §6, §7

CLK1 = molecular target: T5, CLK1 (Homo sapiens, UniProt P49759); assay: Radiometric protein kinase assay (33PanQinase Activity Assay), CLK1
T5 construct: GST-fusion or His-tag (not specified per kinase); purchased ProQinase GmbH; host or cells: Sf9 insect cells or E. coli (not specified per kinase)
Summary of the method: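 Recombinant human kinases (GST- or His-tagged, full-length or active fragments, from Sf9 or E. coli) were run in the radiometric 33PanQinase assay with [γ-33P]-ATP. Compounds were tested at 10 concentrations from 10 μM to 30 nM in 1% DMSO, incubated 60 min at 30 °C, and IC50 derived from dose-response curves.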

DYRK1B = molecular target: T6, DYRK1B (Homo sapiens, UniProt Q9Y463); assay: Radiometric protein kinase assay (33PanQinase Activity Assay), DYRK1B; conditions: read-out: IC50 on DYRK1B (most potent DYRK1B inhibitors)
T6 construct: GST-fusion or His-tag (not specified per kinase); purchased ProQinase GmbH; host or cells: Sf9 insect cells or E. coli (not specified per kinase)
Method: as §1, §2, §3, §4, §5, §6, §7

DYRK1A = molecular target: T7, DYRK1A (Homo sapiens, UniProt Q13627); assay: Radiometric protein kinase assay (33PanQinase Activity Assay), DYRK1A; conditions: for Selectivity Class DYRK1A vs. CLK1: ratio of IC50 on CLK1 over IC50 on DYRK1A; for Selectivity Class DYRK1A vs. DYRK1B: ratio of IC50 on DYRK1B over IC50 on DYRK1A
T7 construct: GST-fusion or His-tag (not specified per kinase); purchased ProQinase GmbH; host or cells: Sf9 insect cells or E. coli (not specified per kinase)
Summary of the method: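 Recombinant human kinase, expressed in Sf9 or E. coli, in a radiometric [γ-33P]-ATP assay at 30 °C for 60 min. Compounds tested at 10 concentrations from 10 μM to 30 nM, 1% DMSO final. 33Pi incorporation measured by scintillation counting; IC50 from dose-response curves.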

DYRK4 = molecular target: T8, DYRK4 (Homo sapiens, UniProt Q9NR20); assay: Radiometric protein kinase assay (33PanQinase Activity Assay), DYRK4; conditions: read-out: IC50 on DYRK4 (most potent DYRK4 inhibitors)
T8 construct: GST-fusion or His-tag (not specified per kinase); purchased ProQinase GmbH; host or cells: Sf9 insect cells or E. coli (not specified per kinase)
T8 sequence (Q9NR20 1-520): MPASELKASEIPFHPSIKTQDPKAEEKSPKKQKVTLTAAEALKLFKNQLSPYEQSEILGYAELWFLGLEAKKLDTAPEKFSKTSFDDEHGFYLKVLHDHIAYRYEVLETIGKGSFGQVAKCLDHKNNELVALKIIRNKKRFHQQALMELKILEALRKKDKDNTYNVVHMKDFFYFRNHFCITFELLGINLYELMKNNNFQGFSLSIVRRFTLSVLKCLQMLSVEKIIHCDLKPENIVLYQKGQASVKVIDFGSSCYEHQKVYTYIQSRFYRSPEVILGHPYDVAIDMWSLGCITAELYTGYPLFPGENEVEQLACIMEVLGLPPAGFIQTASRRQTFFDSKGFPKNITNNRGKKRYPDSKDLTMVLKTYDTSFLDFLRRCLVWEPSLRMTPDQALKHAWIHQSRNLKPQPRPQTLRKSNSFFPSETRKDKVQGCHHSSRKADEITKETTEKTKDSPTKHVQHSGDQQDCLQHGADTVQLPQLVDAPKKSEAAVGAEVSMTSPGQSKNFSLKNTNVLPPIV
Method: as §1, §2
For the assays (see below), 5 μL solution from each well of the compound dilution plates/10% DMSO were transferred into the assay plates. The final volume of the assay was 50 μL. All compounds were tested at 10 final assay concentrations in the range from 10 μM to 30 nM. The final DMSO concentration in the reaction cocktails was 1% in all cases. […]
The reaction cocktails were incubated at 30° C. for 60 minutes. […] Incorporation of ^33Pi was determined with a microplate scintillation counter (Microbeta, Wallac). The IC50 values for all compounds were calculated from the dose response curves […]

DYRK2 = molecular target: T9, DYRK2 (Homo sapiens, UniProt Q92630); assay: Radiometric protein kinase assay (33PanQinase Activity Assay), DYRK2; conditions: read-out: IC50 on DYRK2 (most potent DYRK2 inhibitors)
T9 construct: GST-fusion or His-tag (not specified per kinase); purchased ProQinase GmbH; host or cells: Sf9 insect cells or E. coli (not specified per kinase)
T9 sequence (Q92630 1-601): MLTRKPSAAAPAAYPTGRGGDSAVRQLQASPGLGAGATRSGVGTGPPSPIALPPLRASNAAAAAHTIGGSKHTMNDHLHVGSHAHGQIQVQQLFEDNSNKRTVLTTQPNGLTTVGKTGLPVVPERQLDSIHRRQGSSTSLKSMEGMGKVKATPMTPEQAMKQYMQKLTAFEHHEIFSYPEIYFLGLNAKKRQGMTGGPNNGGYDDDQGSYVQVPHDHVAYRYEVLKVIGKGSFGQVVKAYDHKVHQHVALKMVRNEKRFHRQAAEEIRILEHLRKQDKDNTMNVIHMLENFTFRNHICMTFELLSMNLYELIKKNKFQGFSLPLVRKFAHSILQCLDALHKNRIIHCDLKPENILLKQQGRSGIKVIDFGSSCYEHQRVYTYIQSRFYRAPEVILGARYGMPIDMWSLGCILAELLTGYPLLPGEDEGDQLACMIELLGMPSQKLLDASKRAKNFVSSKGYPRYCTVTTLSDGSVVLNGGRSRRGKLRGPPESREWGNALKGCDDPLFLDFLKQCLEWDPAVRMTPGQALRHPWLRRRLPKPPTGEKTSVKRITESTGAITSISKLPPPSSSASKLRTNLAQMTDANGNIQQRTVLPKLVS
Method: as §1, §2, §3, §4, §5, §6, §7

[1] = IC50 class A to E, read-out: Potency Class CLK1
[2] = class by IC50 on CLK1, from dose-response curves, read-out: Potency Class CLK1
[3] = IC50 class A to E, read-out: Potency Class DYRK1A
[4] = class by IC50 on DYRK1A, from dose-response curves, read-out: Potency Class DYRK1A
[5] = read-out: IC50 on DYRK1A (most potent DYRK1A inhibitors)

T5 sequence (P49759 whole entry, the tested form may be a part): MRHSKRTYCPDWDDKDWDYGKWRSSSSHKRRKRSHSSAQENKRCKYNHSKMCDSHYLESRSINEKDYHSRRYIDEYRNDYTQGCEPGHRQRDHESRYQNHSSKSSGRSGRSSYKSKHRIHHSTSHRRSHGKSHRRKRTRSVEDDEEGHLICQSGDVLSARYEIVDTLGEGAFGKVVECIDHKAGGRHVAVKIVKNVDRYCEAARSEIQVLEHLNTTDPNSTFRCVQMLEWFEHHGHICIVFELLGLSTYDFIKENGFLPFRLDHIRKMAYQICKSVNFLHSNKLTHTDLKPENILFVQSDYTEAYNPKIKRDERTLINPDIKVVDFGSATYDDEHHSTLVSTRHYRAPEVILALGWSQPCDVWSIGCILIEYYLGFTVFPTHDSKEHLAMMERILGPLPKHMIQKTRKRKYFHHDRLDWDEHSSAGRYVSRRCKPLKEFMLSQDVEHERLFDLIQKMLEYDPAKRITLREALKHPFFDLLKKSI
T1 sequence (P49761 whole entry, the tested form may be a part): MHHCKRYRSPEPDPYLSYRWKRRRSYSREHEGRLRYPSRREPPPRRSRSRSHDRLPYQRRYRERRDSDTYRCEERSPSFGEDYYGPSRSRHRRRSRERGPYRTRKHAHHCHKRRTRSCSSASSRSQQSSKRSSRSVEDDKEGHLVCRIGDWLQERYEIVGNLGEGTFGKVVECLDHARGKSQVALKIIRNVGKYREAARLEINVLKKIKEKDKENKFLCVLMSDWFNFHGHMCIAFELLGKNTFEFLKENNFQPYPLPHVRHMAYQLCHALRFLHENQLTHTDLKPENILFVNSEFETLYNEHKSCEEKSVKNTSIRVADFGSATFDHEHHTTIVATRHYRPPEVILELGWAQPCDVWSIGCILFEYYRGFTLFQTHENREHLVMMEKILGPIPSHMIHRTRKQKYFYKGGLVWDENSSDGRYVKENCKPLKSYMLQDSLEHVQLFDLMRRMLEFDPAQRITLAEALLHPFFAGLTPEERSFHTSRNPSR
T4 sequence (Q9HAZ1 whole entry, the tested form may be a part): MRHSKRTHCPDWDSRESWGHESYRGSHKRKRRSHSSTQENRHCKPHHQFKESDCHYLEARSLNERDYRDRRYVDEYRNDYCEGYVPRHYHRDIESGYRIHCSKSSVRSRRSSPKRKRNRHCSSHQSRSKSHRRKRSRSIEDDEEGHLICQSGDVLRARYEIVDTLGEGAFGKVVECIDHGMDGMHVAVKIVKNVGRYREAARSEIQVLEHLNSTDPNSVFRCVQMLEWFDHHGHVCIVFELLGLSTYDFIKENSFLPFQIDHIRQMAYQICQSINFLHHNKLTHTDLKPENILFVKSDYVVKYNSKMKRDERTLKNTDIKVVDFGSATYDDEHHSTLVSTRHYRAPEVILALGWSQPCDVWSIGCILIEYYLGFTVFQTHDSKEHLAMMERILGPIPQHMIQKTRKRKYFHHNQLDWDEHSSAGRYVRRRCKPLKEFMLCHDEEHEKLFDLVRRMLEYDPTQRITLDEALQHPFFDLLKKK
T6 sequence (Q9Y463 whole entry, the tested form may be a part): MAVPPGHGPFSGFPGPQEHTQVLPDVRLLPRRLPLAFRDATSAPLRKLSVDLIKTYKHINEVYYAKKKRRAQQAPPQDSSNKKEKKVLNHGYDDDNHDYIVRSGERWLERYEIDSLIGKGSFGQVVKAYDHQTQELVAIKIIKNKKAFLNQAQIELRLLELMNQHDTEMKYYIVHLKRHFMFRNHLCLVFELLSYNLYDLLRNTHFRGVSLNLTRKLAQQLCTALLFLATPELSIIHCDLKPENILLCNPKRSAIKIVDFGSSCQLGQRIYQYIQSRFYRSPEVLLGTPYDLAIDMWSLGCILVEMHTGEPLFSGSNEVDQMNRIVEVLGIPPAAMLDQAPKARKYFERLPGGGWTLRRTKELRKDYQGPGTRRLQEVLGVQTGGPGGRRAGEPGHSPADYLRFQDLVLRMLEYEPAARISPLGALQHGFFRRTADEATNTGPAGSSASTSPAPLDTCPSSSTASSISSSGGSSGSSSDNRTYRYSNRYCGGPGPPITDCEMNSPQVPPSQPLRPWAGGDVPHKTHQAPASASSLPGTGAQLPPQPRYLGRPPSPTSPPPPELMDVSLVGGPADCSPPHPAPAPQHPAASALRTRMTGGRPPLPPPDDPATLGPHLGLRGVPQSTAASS
T2 sequence (P49760 whole entry, the tested form may be a part): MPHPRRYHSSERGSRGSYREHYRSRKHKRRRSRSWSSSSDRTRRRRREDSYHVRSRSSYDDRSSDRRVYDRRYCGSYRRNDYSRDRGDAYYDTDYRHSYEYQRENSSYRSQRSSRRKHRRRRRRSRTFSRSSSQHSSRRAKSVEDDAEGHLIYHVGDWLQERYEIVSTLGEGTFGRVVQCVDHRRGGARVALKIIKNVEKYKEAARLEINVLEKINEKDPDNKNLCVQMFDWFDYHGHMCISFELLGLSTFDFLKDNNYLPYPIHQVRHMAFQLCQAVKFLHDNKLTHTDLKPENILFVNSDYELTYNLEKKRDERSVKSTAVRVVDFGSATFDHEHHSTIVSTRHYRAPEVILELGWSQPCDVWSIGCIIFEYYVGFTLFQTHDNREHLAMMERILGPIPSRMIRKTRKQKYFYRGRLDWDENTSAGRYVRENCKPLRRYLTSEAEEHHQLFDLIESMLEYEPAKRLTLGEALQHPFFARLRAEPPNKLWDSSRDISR

Compound	IC50 (CLK3) [nM]	IC50 (CLK2) [nM]	IC50 (DYRK3) [nM]	IC50 (CLK4) [nM]	IC50 (CLK1; [1]) [nM]	IC50 (CLK1; [2]) [nM]	IC50 (CLK1; read-out: IC50 on CLK1 (most potent CLK1 inhibitors)) [nM]	IC50 (DYRK1B) [nM]	IC50 (DYRK1A; [3]) [nM]	IC50 (DYRK1A; [4]) [nM]	Selectivity Class DYRK1A vs. CLK1 (DYRK1A)	Selectivity Class DYRK1A vs. DYRK1B (DYRK1A)	IC50 (DYRK1A; [5]) [nM]	IC50 (DYRK4) [nM]	IC50 (DYRK2) [nM]
O=C1NC(NC23CC4CC(CC(C4)C2)C3)=N/C1=C\c1ccc2ncccc2n1 [Compound 70, (4Z)-2-(1-adamantylamino)-4-(1,5-naphthyridin-2-ylmethylene)-1H-imidazol-5-one]	≤ 500	≤ 100	≤ 250	≤ 10	5 to 10	5 to 10	≤ 10	≤ 10	≤ 5	< 5	II (ratio between 2 and 10 fold)	II (ratio between 2 and 10 fold)	≤ 10		
COC[C@@H](CC(C)C)NC1=N/C(=C\c2ccc3ncccc3n2)C(=O)N1 [Compound 81, (4Z)-2-[[(1R)-1-(methoxymethyl)-3-methyl-butyl]amino]-4-(1,5-naphthyridin-2-ylmethylene)-1H-imidazol-5-one]	≤ 500					> 50				> 50	III (ratio between 0.5 and 2 fold)	III (ratio between 0.5 and 2 fold)			
O=C1NC(NC2CCCCC2)=N/C1=C\c1ccc2ncccc2n1 [Compound 79, (4Z)-2-(cyclohexylamino)-4-(1,5-naphthyridin-2-ylmethylene)-1H-imidazol-5-one]	≤ 500		≤ 250	≤ 10		25 to 50				25 to 50	III (ratio between 0.5 and 2 fold)	III (ratio between 0.5 and 2 fold)			
O=C1NC(NC23CC4CC(CC2C4)C3)=N/C1=C\c1ccc2nccnc2c1 [Compound 16, (4Z)-2-(3-noradamantylamino)-4-(quinoxalin-6-ylmethylene)-1H-imidazol-5-one]				≤ 10	> 50	> 50			5 to 10	5 to 10	I (ratio of IC50 on CLK1 or DYRK1B over IC50 on DYRK1A ≥10 fold (most DYRK1A-selective compounds))	II (ratio between 2 and 10 fold)	≤ 10	≤ 300	≤ 250
